Experiments:
SARS-CoV-2 = assay: Antiviral activity against SARS-CoV-2 infected in African green monkey Vero cells assessed as inhibition of viral replication measured after 24 hrs post infection by qRT-PCR analysis; type: functional, organism-based; conditions: Severe acute respiratory syndrome coronavirus 2, Vero
[1] = biological target: T1, Replicase polyprotein 1ab (Severe acute respiratory syndrome coronavirus 2, UniProt P0DTD1); assay: Inhibition of SARS CoV-2 main protease
[2] = Cytotoxicity against African green monkey Vero cells incubated for 3 days by automatic cell counting method; type: toxicity, cell-based; conditions: chlorocebus sabaeus, time 3 day
[3] = biological target: T1, Replicase polyprotein 1ab; assay: Binding affinity to SARS CoV-2 main protease assessed as inhibition constant

SMILES: COc1cc(C)cc2c(-c3c(O)cc(O)c4c3C[C@@H](C)N[C@@H]4C)ccc(O)c12 (stereo in doubt; 1a) [KORUPENSAMINE A]
- EC50 (SARS-CoV-2): 4.23 µM
- IC50 [1]: 2.52 µM
- CC50 at 72 h [2]: 35.1 µM
- Ki [3]: 1420 nM

SMILES: COc1cc(C)cc2c(-c3c(O)cc(O)c4c3C[C@@H](C)N[C@@H]4C)ccc(O)c12 (stereo in doubt; 1b) [KORUPENSAMINE A]
- IC50 [1]: 71.9 µM

Source: ChEMBL document CHEMBL5346909, “Korupensamine A, but not its atropisomer, korupensamine B, inhibits SARS-CoV-2 in vitro by targeting its main protease (Mpro)” (Eur J Med Chem, 2023)
